Reference: publication PMC11783427, “Enhanced dynamic coupling in a nuclear receptor underlies ligand activity” (The Journal of Biological Chemistry, 2024)
Where two headings read alike, the source gives them in different places. Values belong to the molecule of their own block, whether it stands above or below them.

How the values were obtained:
FXR [1] = molecular target: T1, FXR (Homo sapiens, UniProt Q96RI1); assay: Dual-luciferase reporter assay of FXR transcription (IR-1-CON-luc and PLTP-luc) in HeLa cells; assay type: cell-based
T1 construct: Luciferase with FL-FXR and Coregulators; expressed in transfected cells; host or cells: HeLa cells
T1 sequence (Q96RI1 1-476 isoform Q96RI1-1): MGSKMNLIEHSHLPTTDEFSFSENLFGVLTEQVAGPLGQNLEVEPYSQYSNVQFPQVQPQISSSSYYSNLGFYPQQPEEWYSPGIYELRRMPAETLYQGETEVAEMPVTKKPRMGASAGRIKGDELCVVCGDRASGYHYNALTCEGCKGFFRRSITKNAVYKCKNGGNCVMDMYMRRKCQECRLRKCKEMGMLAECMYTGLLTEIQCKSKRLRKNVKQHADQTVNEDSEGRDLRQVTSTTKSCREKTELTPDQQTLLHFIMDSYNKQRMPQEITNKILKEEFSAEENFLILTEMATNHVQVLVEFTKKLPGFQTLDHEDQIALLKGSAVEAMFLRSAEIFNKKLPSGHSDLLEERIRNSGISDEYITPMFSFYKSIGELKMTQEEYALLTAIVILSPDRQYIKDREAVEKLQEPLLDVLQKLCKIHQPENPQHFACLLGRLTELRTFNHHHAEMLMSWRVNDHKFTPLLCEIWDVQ
T1 sequence (P19793 1-462 partner): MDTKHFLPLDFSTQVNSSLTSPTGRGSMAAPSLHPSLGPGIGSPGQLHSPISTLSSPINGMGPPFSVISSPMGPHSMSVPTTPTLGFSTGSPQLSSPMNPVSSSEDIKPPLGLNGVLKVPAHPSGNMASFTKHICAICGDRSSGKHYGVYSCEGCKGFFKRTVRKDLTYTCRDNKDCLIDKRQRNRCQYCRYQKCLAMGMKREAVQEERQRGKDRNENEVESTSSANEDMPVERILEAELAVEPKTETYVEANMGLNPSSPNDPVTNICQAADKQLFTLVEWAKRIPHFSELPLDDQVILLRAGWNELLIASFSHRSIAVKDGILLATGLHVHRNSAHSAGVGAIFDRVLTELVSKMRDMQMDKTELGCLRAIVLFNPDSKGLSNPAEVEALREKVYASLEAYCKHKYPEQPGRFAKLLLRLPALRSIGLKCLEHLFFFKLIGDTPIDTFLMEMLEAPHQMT

FXR [2] = settings: cited from earlier work

Description: HeLa cells were obtained from American Type Culture Collection, and the cells were grown in culture in minimum essential medium alpha (Thermo Fisher Scientific) supplemented with 10% FBS and 1% L-glutamine at 37 °C with humidified atmosphere at 5% CO2.
Cells were seeded 10,000 cells/well in a 96-well, clear flat, bottom cell culture plate. Cotransfection was performed with equal amount of 5 ng of each expression plasmids pcDNA3.1-FXR and pcDNA3.1-RXR, along with 50 ng of the pGL4.31-derived plasmids containing the FXRE and 1 ng of renilla luciferase (pRL-CMV). […]
At 24 h after transfection, cells were stimulated with DMSO (final concentration of 0.71%) or test ligands at final concentrations 10 μM or 100 μM, as appropriate. After another 24 h incubation, Firefly luciferase activity and Renilla luciferase activity were measured using the Dual-Glo kit (Promega) using a SpectraMax iD5 plate reader. […]
Data for luciferase assays are presented as the mean ± standard SD of at least three independent replicates. p values were calculated using two-way ANOVA with Dunnett’s multiple comparisons test to access the differences between specific pairs of means. For coregulator mean comparisons, p values were calculated using one-way ANOVA with Sidaks’s multiple comparisons. […]

luciferase activity (efficacy of FXR transcriptional activation) (FXR [1]; 10 μM ligand, both IR-1-CON-luc and PLTP-luc, compared among OCA, CDCA, LCA): highest efficacy
SMILES: CC[C@H]1[C@@H](O)[C@@H]2[C@H](CC[C@]3(C)[C@@H]([C@H](C)CCC(=O)O)CC[C@@H]23)[C@@]2(C)CC[C@@H](O)C[C@@H]12 [OCA, obeticholic acid]

luciferase activity (efficacy of FXR transcriptional activation) (FXR [1]; 100 μM ligand, compared with 10 μM OCA, Fig. S1A): falls short of 10 μM OCA levels
SMILES: C[C@H](CCC(=O)O)[C@H]1CC[C@H]2[C@@H]3CC[C@@H]4C[C@H](O)CC[C@]4(C)[C@H]3CC[C@]12C [LCA, lithocholic acid]
